# Assay results: patent publication US10710986B2, “PD-1/PD-L1 inhibitors” (Gilead Sciences, Inc., priority 2018, dated 2020)
# Target: PD-1/PD-L1 (Homo sapiens (Human), UniProt Q9NZQ7)
# Experiment: PD-1/PD-L1 biochemical protein-protein interaction assay (ALPHA)
# Conditions: 0.3 nM His tagged PD-L1, 2.5 nM biotinylated Fc-PD-1, 60 minutes at 25° C., read-out: IC50 PD-L1-PD1
# PD-1/PD-L1, sequence (Q9NZQ7 19-238): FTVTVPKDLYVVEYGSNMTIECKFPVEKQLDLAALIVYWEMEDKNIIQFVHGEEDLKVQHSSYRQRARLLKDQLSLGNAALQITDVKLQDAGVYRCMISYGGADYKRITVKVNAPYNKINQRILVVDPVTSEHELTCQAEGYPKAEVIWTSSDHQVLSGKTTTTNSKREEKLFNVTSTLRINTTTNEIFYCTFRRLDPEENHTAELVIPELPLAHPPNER
row,Structure (SMILES),IC50
1,COc1nc(-c2cccc(-c3cccc(-c4cnc(CN5C[C@H](C)[C@@H](O)C5)c(OC)n4)c3Cl)c2Cl)cnc1CNC[C@@H]1CCC(=O)N1 [compound 487],0.123 nM
2,CNc1nc(-c2cccc(-c3cccc(-c4cnc(CNC[C@@H]5CCC(=O)N5)c(OC)n4)c3Cl)c2Cl)cnc1CN1CC2(C1)CN(C(C)=O)C2 [compound 488],0.064 nM
3,COc1nc(-c2cccc(-c3cccc(-c4cnc5c(CN6CC7(C6)CN(C(C)=O)C7)nn(C)c5n4)c3Cl)c2Cl)cnc1CN1CC2(C1)CN(C(C)=O)C2 [compound 489],0.332 nM
4,CCn1nc(CN2CC3(C2)CN(C(C)=O)C3)c2ncc(-c3cccc(-c4cccc(-c5cnc(CN6CC7(C6)CN(C(C)=O)C7)c(OC)n5)c4Cl)c3Cl)nc21 [compound 490],0.565 nM
5,COc1nc(-c2cccc(-c3cccc(-c4ccc5c(CN6CC7(C6)CN(C(C)=O)C7)cn(C)c5n4)c3Cl)c2Cl)cnc1CN1CC2(C1)CN(C(C)=O)C2 [compound 491],0.064 nM
6,COc1nc(-c2cccc(-c3cccc(-c4ccc5c(CN6CC(O)C6)cn(C)c5n4)c3Cl)c2Cl)cnc1CN1CC(O)C1 [compound 492],0.092 nM
7,COc1nc(-c2cccc(-c3cccc(-c4ccc5c(CN6CC7(CNC(=O)C7)C6)cn(C)c5n4)c3Cl)c2Cl)cnc1CN1CC2(CNC(=O)C2)C1 [compound 493],0.109 nM
8,COc1nc(-c2cccc(-c3cccc(-c4ccc5c(CN6CC7(CCC(=O)N7)C6)cn(C)c5n4)c3Cl)c2Cl)cnc1CN1CC2(CCC(=O)N2)C1 [compound 494],0.139 nM
9,COc1nc(-c2cccc(-c3cccc(-c4ccc5c(CNC[C@@H]6CCC(=O)N6)cn(C)c5n4)c3Cl)c2Cl)cnc1CNC[C@@H]1CCC(=O)N1 [compound 495],0.247 nM
10,OC1CN(Cc2ncc(-c3cccc(-c4cccc(-c5cnc(CN6CC(O)C6)c(N6CCC6)n5)c4Cl)c3Cl)nc2N2CCC2)C1 [compound 496],0.386 nM
11,COc1nc(-c2cccc(-c3cccc(-c4cnc(CN5CC6(CNC(=O)C6)C5)c(OC)n4)c3Cl)c2F)ccc1CN1CC2(CNC(=O)C2)C1 [compound 497],0.276 nM
12,COc1nc(-c2cccc(-c3cccc(-c4cnc(CNC[C@@H]5CCC(=O)N5)c(OC)n4)c3Cl)c2F)ccc1CNC[C@@H]1CCC(=O)N1 [compound 498],0.169 nM
13,COc1nc(-c2cccc(-c3cccc(-c4cnc(CN5CC[C@@H](C(C)(C)O)C5)c(OC)n4)c3Cl)c2Cl)cnc1CN1CC[C@@H](C(C)(C)O)C1 [compound 499],0.203 nM
14,COc1nc(-c2cccc(-c3cccc(-c4cnc(CN5CC[C@H](C(C)(C)O)C5)c(OC)n4)c3Cl)c2Cl)cnc1CN1CC[C@H](C(C)(C)O)C1 [compound 500],0.232 nM
15,COc1nc(-c2cccc(-c3cccc(-c4cnc(CN5CC[C@@H](C(C)(C)O)C5)c(OC)n4)c3Cl)c2Cl)cnc1CNC[C@@H]1CCC(=O)N1 [compound 501],0.087 nM
16,COc1nc(-c2cccc(-c3cccc(-c4cnc(CN5CC[C@H](C(C)(C)O)C5)c(OC)n4)c3Cl)c2Cl)cnc1CNC[C@@H]1CCC(=O)N1 [compound 502],0.064 nM
17,COc1nc(-c2cccc(-c3cccc(-c4cnc(CN5CCC(C(N)=O)CC5)c(OC)n4)c3Cl)c2Cl)cnc1CNC[C@@H]1CCC(=O)N1 [compound 508],0.084 nM
18,COc1nc(-c2cccc(-c3cccc(-c4cnc(CNC5CCOCC5)c(OC)n4)c3Cl)c2Cl)cnc1CNC[C@@H]1CCC(=O)N1 [compound 509],0.106 nM
19,COc1nc(-c2cccc(-c3cccc(-c4cnc(CN5CC[C@](C)(O)C5)c(OC)n4)c3Cl)c2Cl)cnc1CNC[C@@H]1CCC(=O)N1 [compound 510],0.192 nM
20,COc1nc(-c2cccc(-c3cccc(-c4cnc(CN[C@H]5C[C@H](CO)C5)c(OC)n4)c3Cl)c2Cl)cnc1CNC[C@@H]1CCC(=O)N1 [compound 511],0.197 nM
21,COc1nc(-c2cccc(-c3cccc(-c4cnc(CNCCC(=O)O)c(OC)n4)c3Cl)c2Cl)ccc1CNC[C@@H]1CCC(=O)N1 [compound 512],0.101 nM
22,COc1nc(-c2cccc(-c3cccc(-c4cnc(CN5CC[C@H](C(=O)O)C5)c(OC)n4)c3Cl)c2Cl)ccc1CNC[C@@H]1CCC(=O)N1 [compound 513],0.064 nM
